Data on 17 compounds can be found in EP1243271A1, “NASAL DROPS CONTAINING FUSED PYRIDAZINE DERIVATIVES” (Takeda Chemical Industries, Ltd., priority 1999, dated 2001).

The structures appear in SMILES notation. Counter-ions that a name gives are not always drawn.

Assay [1] concerns Guinea Pig Eosinophils. Description: Suppression of LTB4-induced chemotactic reaction of guinea pig eosinophils. In kind it is cell-based, guinea pigs. The following applies: Cavia porcellus, Eosinophil, test drug 1 × 10^-5 M, LTB4 10^-8 M, read-out: Suppression Rate (%). As for the experimental part:
To male Hartley guinea pigs, 2 ml of equine serum (Bio-Whittaker, Inc.) was intraperitoneally administered once weekly for 8 consecutive weeks. At 48 hours after final administration, 75 ml of physiological saline was intraperitoneally injected, after which the recovered solution was centrifuged at 400 × g for 5 minutes. The resulting sediment was suspended in 5 ml of Percoll solution (density d=1.07) and layered on top of the discontinuous density layer of Percoll solution (density d=1.112, 5 ml; d=1.095, 10 ml; d=1.090, 10 ml; d=1.085, 5 ml), followed by centrifugation at 1,000 × g for 25 minutes (20°C). The cell layer formed at the interface between density d= 1.112 and density d=1.095 was collected. Erythrocytes present in the collected cell sediment were removed by hypotonic treatment (suspended in water for […]).
The cell sediment was washed 3 times with Hanks' solution containing 10 mM Hepes (Dojin Kagaku) (Hanks-Hepes) and suspended in a Hanks-Hepes solution containing 2% human serum albumin (Wako Pure Chemical Industry or Sigma) (Hanks-Hepes-HSA) to a concentration of 5.56×10^6 cells/ml. Eosinophil purity was 90%, viability was over 98%.
To a 24-well culture dish, which serves as a lower chamber, 600 µl of Hanks-Hepes-HSA solution containing LTB4 (final concentration 10^-8 M, Cascade Biochemical Ltd.), was transferred, followed by incubation at 37°C for 30 minutes in a carbon dioxide incubator. Separately, 200 µl of eosinophil suspension (5×10^6 cells/ml), previously incubated at 37°C for 15 minutes, was added to Chemotaxicell (polycarbonate membrane, pore size 3 µm, thickness 10 µm), which serves as an upper chamber, after the upper chamber was attached to the 24-well culture dish. After 2 hours of reaction in the carbon dioxide incubator, the Chemotaxicell was removed; 60 µl of 2% (w/v) EDTA solution in physiological saline was added to the liquid in the lower chamber. After ice-cooling, the cells migrating into the inner solution of the lower chamber were counted using a blood cell counter [Coulter Counter (trade name)]. The test drug, dissolved in N,N-dimethylformamide (DMF), was added to both the upper and lower chambers to a final concentration of 10^-5 M. Equation 2 Chemotactic reaction suppression rate = [1-(number of migrating cells in the presence of drug/number of migrating cells in the absence of drug)] × 100 [formula] suppression rates of LTB4 -induced chemotactic reaction by test drug (1 × 10^-5 M concentration) were calculated.

Assay [2] deals with Male Hartley guinea pigs. Description: Effect on histamine-induced increases in microvascular permeability in skin in guinea pigs. The class given is in vivo. The following applies: Cavia porcellus; 3 mg/kg oral administration 1 hour before histamine; guinea pig skin. The procedure:
Male Hartley guinea pigs weighing about 500 g were used. After the dorsal hair was shaved under ether anesthesia, 1 ml of a 2.5% pontamine sky blue solution was injected intravenously, and then 0.1 ml of histamine at 3 µg/ml was injected intradermally into 2 sites (left and right) in the back. Thirty minutes after the injection of histamine, animals were fainted by knocking in the head, decapitated and killed by bleeding, after which the skin of the back was removed. The long and short diameters (mm) of each blue spot were measured and multiplied; the mean product was taken as the vascular permeability index. Test compounds were suspended in a 5% gum arabic solution and orally administered in a volume of 0.2 ml/100 g body weight at 1 hour before histamine administration. Animals in the control group received the same volume of a 5% gum arabic solution. Equation 1 Inhibition (%) of histamine-induced increases in microvascular permeability in skin = 100 × (1-vascular permeability index in the presence of drug/vascular permeability index in control group) [formula]

As for `c1ccc(C(OC2CCN(CCCOc3ccc4ncnn4n3)CC2)c2ccccc2)cc1` [Reference Example B2, 6-[3-[4-(diphenylmethoxy)piperidino]propoxy]-[1,2,4]triazolo[1,5-b]pyridazine fumarate], the inhibition at 10 µM in assay [1] came out at 54%. In assay [2], `c1ccc(C(OC2CCN(CCCNc3ccc4ncnn4n3)CC2)c2ccccc2)cc1` [Reference Example B6, 6-[3-[4-(diphenylmethoxy)piperidino]-propylamino][1,2,4]triazolo[1,5-b]pyridazine] had an inhibition in vivo at 3 mg/kg of 91%. In addition, in assay [1], the inhibition at 10 µM stood at 64%. Turning to `c1ccc(C(OC2CCN(CCCCNc3ccc4ncnn4n3)CC2)c2ccccc2)cc1` [Reference Example B12, 6-[4-[4-(diphenylmethoxy)piperidino]-butylamino][1,2,4]triazolo[1,5-b]pyridazine], the inhibition in vivo at 3 mg/kg in assay [2] came to 91%. `O=C(CCN1CCC(OC(c2ccccc2)c2ccccc2)CC1)Nc1ccc2ncnn2n1` [Reference Example B18, 3-[4-(diphenylmethoxy)piperidino]-N-([1,2,4]triazolo[1,5-b]pyridazin-6-yl)propionamide] had an inhibition in vivo at 3 mg/kg in assay [2] of 91%. In the case of `Cc1nc2ccc(NCCCN3CCC(OC(c4ccccc4)c4ccccc4)CC3)nn2n1` [Reference Example B20, 6-[3-[4-(diphenylmethoxy)piperidino]-propylamino]-2-methyl[1,2,4]triazolo[1,5-b]pyridazine], the inhibition in vivo at 3 mg/kg in assay [2] came out at 92%. The inhibition at 10 µM in assay [1] is 61%. Take `Cc1nc2ccc(OCCCN3CCC(OC(c4ccccc4)c4ccccc4)CC3)nn2n1` [Reference Example B21, 6-[3-[4-(diphenylmethoxy)piperidino]propoxy]-2-methyl[1,2,4]triazolo[1,5-b]pyridazine]: testing at 3 mg/kg in assay [2] gave an inhibition in vivo of 91%.

With `CC(C)(C)c1nc2ccc(NCCCN3CCC(OC(c4ccccc4)c4ccccc4)CC3)nn2n1` [Reference Example B34, 2-tert-butyl-6-[3-[4-(diphenylmethoxy)-piperidino]propylamino][1,2,4]triazolo[1,5-b]pyridazine fumarate], the inhibition at 10 µM in assay [1] amounted to 50%. On the same count and under the same terms, the value for `c1ccc(C(OC2CCN(CCCCCCNc3ccc4ncnn4n3)CC2)c2ccccc2)cc1` [Reference Example B35, 6-[6-[4-(diphenylmethoxy)piperidino]-hexylamino][1,2,4]triazolo[1,5-b]pyridazine] was 52%. Same read-out and setting: the value for `COC(=O)c1nc2ccc(NCCCN3CCC(OC(c4ccccc4)c4ccccc4)CC3)nn2n1` [Reference Example B36, methyl 6-[3-[4-(diphenylmethoxy)piperidino]-propylamino][1,2,4]triazolo[1,5-b]pyridazine-2-carboxylate] was 64%. The compound `c1ccc(C(c2ccccc2)N2CCN(CCCCCCNc3ccc4ncnn4n3)CC2)cc1` [Reference Example B37, 6-[6-[4-(diphenylmethyl)-1-piperazinyl]-hexylamino][1,2,4]triazolo[1,5-b]pyridazine] showed an inhibition in vivo at 3 mg/kg in assay [2] of 92%. In assay [2], `COc1cn2nc(OCCCN3CCC(OC(c4ccccc4)c4ccccc4)CC3)ccc2n1` [Reference Example B41, 6-[3-[4-(diphenylmethoxy)piperidino]propoxy]-2-methoxyimidazo[1,2-b]pyridazine] had an inhibition in vivo at 3 mg/kg of 92%.

`CC(C)(C(=O)O)c1cn2nc(OCCCN3CCC(OC(c4ccccc4)c4ccccc4)CC3)ccc2n1` [Reference Example B45, 2-[6-[3-[4-(diphenylmethoxy)piperidino]-propoxy]imidazo[1,2-b]pyridazin-2-yl]-2-methylpropionic acid] registered an inhibition in vivo at 3 mg/kg in assay [2] of 91%. `Cc1cc2ncnn2nc1OCCOCCN1CCN(C(c2ccccc2)c2ccccc2)CC1` [Reference Example B47, 6-[2-[2-[4-(diphenylmethyl)-1-piperazinyl]-ethoxy]ethoxy]-7-methyl[1,2,4]triazolo[1,5-b]pyridazine]: the inhibition at 10 µM in assay [1] turned out to be 54%. Same read-out and setting: in the case of `Cc1cc2ncnn2nc1OCCCCCCN1CCN(C(c2ccccc2)c2ccccc2)CC1` [Reference Example B51, 6-[6-[4-(diphenylmethyl)-1-piperazinyl]hexyloxy]-7-methyl[1,2,4]triazolo[1,5-b]pyridazine dihydrochloride] it was 80%; in that of `CC(C)c1cc2ncnn2nc1SCCOCCN1CCN(C(c2ccccc2)c2ccccc2)CC1` [Reference Example B59, 6-[2-[2-[4-(diphenylmethyl)-1-piperazinyl]-ethoxy]ethylthio]-7-isopropyl[1,2,4]triazolo[1,5-b]pyridazine dihydrochloride], 54%. Still for that read-out and setting: in the case of `CC(C)c1cc2ncnn2nc1OCCOCCN1CCN(C(c2ccccc2)c2ccccc2)CC1` [Reference Example B61, 6-[2-[2-[4-(diphenylmethyl)-1-piperazinyl]-ethoxy]ethoxy]-7-isopropyl[1,2,4]triazolo[1,5-b]pyridazine] it was 50%; in that of `CC(C)(C)c1cc2ncnn2nc1OCCOCCN1CCN(C(c2ccccc2)c2ccccc2)CC1` [Reference Example B62, 7-tert-butyl-6-[2-[2-[4-(diphenylmethyl)-1-piperazinyl]ethoxy]ethoxy][1,2,4]triazolo[1,5-b]pyridazine dihydrochloride], 52%.
